Data on 19 compounds can be found in ChEMBL document CHEMBL5727136, “Inhibitors of RPN11” (2018).

The nature of test [1]: (§1) Biochemical Assay: In brief, this Rpn11 bioassay employs a fluorescent polarization readout based on the ability of the 26S proteasome to cleave the protein substrate including four tandem ubiquitin proteins fused to a peptide having a unique cysteine labeled with a fluorophore. Cleavage of this substrate by Rpn11 at the junction between the fourth ubiquitin and the peptide, releases the low molecular weight fluorescent peptide. Accordingly, inhibition of fluorescence correlates with inhibition of Rpn11. Inhibition is reported as the half maximal inhibitory concentration (IC50) for the candidate compound.The catalytic JAB1/MPN/Mov34 metalloenzyme (JAMM) motif of Rpn11 is found in 7 different human proteins including the Csn5 subunit of the COP9 signalosome, AMSH, AMSH-LP, the BRCC36 subunit of BRISC, MPND, and MYSM1. All of these enzymes cleave the isopeptide linkage that joins ubiquitin (or the ubiquitin-like protein Nedd8 in the case of Csn5) to a second molecule of ubiquitin or to a substrate. The conserved JAMM domain has the consensus sequence EXnHS/THX7SXXD, in which the histidine (His) and aspartic acid (Asp) residues bind the Zn2+ ion and the fourth coordination site is occupied by a water molecule that is engaged in hydrogen bonding with a conserved glutamic acid (Glu). The Zn2+ acts as a Lewis acid and increases the nucleophilic character of the bound water enough to allow hydrolytic cleavage of the isopeptide bond.

A short description of test [2]: as §1. The source holds these as a separate data set.
A short description of test [3]: as §1. The source holds these as a separate data set.

As a reminder, the IC50 is the concentration that gives 50% inhibition. The low end stands for greater potency in that assay, the high end for weaker potency in that assay. Take `O=C(NCCc1ccco1)c1ccnc2c(S)cccc12`: half-maximal inhibition in test [1] (IC50) was put at 2.9 µM. On the same count and under the same terms, the figure for `O=C(NCc1cccnc1)c1cnc2c(S)cccc2c1` is 3.52 µM. `O=C(NCc1cccs1)c1cnc2c(S)cccc2c1`: the IC50 was found to be 1.3 µM in test [1], 16 µM in test [2] and 0.8 µM in test [3].

`O=C(NCc1ccc(N2CCOCC2)cc1)c1cnc2c(S)cccc2c1` yielded an IC50 in test [3] of 0.8 µM. `NC(=O)c1cnc2c(S)cccc2c1`: the IC50 in test [1] came out at 1.2 µM; in test [3], 1 µM.

As to `CNC(=O)c1cnc2c(S)cccc2c1`, the IC50 came out at 4.8 µM in test [1] and 68 µM in test [2]. As for `O=C(NCc1nccs1)c1cnc2c(S)cccc2c1`, in test [1], it took 7.8 µM to reach half-maximal inhibition (IC50). On to `O=C(NCCc1ccco1)c1cnc2c(S)cccc2c1`, for which the results for the half-inhibitory concentration (IC50) in test [1] and in test [2] were 1.7 µM and 6.9 µM, respectively. In test [1], `O=C(NCc1ccccn1)c1cnc2c(S)cccc2c1` showed an IC50 of 16.7 µM. This counts as double-digit micromolar. Consider `O=C(NCc1ccco1)c1cnc2c(S)cccc2c1`, for which the IC50 in test [1] and in test [3] was 0.9 µM each time. With `O=C(NCCN1CCOCC1)c1cnc2c(S)cccc2c1`, the IC50 in test [1] was 25.4 µM; in test [3], 6.4 µM. `O=C(NCCc1cccs1)c1cnc2c(S)cccc2c1`: the IC50 is 1.3 µM in test [1], 4 µM in test [2] and 0.3 µM in test [3]. Taken in the same sequence, the figures for `O=C(NCC1CCCO1)c1cnc2c(S)cccc2c1` (stereo unspecified) were 6.8 µM, 41.3 µM and 4.6 µM. In test [1], `O=C(Nc1nccs1)c1cnc2c(S)cccc2c1` had an IC50 of 3.3 µM. For the compound `O=C(NCCc1nccs1)c1cnc2c(S)cccc2c1`, the IC50 in test [2] worked out at 30 µM. On to `O=C(NCc1ccc2c(c1)OCO2)c1cnc2c(S)cccc2c1`, for which the IC50 in test [1] is below 0.2 µM; in test [2], 7 µM; in test [3] it was 0.9 µM.

With `O=C(NCc1ccc(F)cc1)c1cnc2c(S)cccc2c1`, the half-maximal inhibitory concentration (IC50) was found to be 0.85 µM in test [1] and 18 µM in test [2]. With `COc1ccc(CNC(=O)c2cnc3c(S)cccc3c2)cc1`, the IC50 in test [1] was 0.6 µM; in test [2], 0.5 µM.

`O=C(NCc1ccccc1)c1cnc2c(S)cccc2c1`: the half-inhibitory concentration (IC50) was 15 µM in test [1], 11 µM in test [2] and 1.1 µM in test [3].
